Experimental data: patent publication US10577332B2, “Tetrazole derivatives” (Hoffmann-La Roche Inc., priority 2015, dated 2020)

What was measured:
human EAAT3 = molecular target: T1, human EAAT3 (Homo sapiens, UniProt P43005); assay: FLIPR Membrane Potential (FMP) assay; assay type: cell-based; conditions: HEK-293 cells stably expressing human EAAT3; antagonist applied 15 min before L-glutamate at EC80; Kb by Cheng-Prusoff from IC50
T1 construct: expressed in transfected cells
T1 sequence (P43005 1-524): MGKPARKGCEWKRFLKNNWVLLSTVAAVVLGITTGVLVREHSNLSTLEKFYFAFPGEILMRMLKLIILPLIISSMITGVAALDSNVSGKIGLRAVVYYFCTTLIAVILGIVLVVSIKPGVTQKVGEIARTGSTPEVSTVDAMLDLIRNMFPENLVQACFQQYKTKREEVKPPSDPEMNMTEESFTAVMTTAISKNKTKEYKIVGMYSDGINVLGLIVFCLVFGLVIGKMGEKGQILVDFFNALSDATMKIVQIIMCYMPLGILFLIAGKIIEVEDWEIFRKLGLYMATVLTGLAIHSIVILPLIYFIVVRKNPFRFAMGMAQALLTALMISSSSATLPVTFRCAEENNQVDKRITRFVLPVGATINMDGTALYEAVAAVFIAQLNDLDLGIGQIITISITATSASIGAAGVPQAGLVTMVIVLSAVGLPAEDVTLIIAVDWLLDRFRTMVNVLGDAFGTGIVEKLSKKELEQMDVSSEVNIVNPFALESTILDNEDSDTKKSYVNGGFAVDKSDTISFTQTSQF
Method: The FLIPR Membrane Potential (FMP) Assay
HEK-293 cells stably expressing human EAAT3 were seeded at 55 000 cells/well in growth medium (DMEM glutamate free (Invitrogen 11960-044), 1% Pen Strep (10 ml/l GIBCO BRL No 15140-023), 10% FCS non dialysed heat inactivated, 5 mg/l puromycin) in poly-D-lysine treated 96-well black microtiter plates with clear-bottom. After 24 h, the growth medium was removed and 100 μl/well of Krebs buffer (140 mM NaCl, 4.7 mM KCl, 2.5 mM CaCl2, 1.2 mM MgCl2, 11 mM HEPES, 10 mM D-glucose, pH=7.4) added. The cells were then loaded by adding 100 μl/well FMP assay dye (FLIPR Membrane Potential assay reagent, Molecular Devices). The 96-well plates were then incubated at 37° C. for 1 h. The depolarization of the cells will cause more dye to enter in the cells, where it will bind to intracellular proteins and lipids and cause an increase in the fluorescence signal. Antagonist potency at human EAAT3 was determined by using L-glutamate as agonist at a concentration which gives 80% of the maximum response. The antagonists were applied 15 min before the application of the agonist L-glutamate. The assays were performed at room temperature and measurements done by using a Fluorometric Imaging Plate Reader (FLIPR, Molecular Devices) and filter #2. Responses were measured as peak increase in fluorescence minus basal (i.e. fluorescence without addition of L-glutamate). Kb was determined using the Cheng-Prusoff equation Kb=IC50/[1+(A/EC50)], where IC50 is the concentration of the antagonist producing 50% inhibition, A is the concentration of the agonist against which the IC50 is being determined (at EC80) and EC50 is the concentration of the agonist producing 50% […].

Compound | melting point [°C] | Kb (human EAAT3) [nM]
CC(C)c1nnnn1-c1cc(C(=O)NC2(C)CCS(=O)(=O)C2)cc(-c2ccc(F)cc2)c1 (racemic) [Example 63, (RS)-3-(4-Fluorophenyl)-N-(3-methyl-1,1-dioxothiolan-3-yl)-5-(5-propan-2-yltetrazol-1-yl)-benzamide] | 112.5 | 650
CC(C)c1nnnn1-c1cc(C(=O)NC(C)(C)C#N)cc(-c2ccc(Cl)cc2)c1 [Example 101, 3-(4-Chlorophenyl)-N-(2-cyanopropan-2-yl)-5-(5-propan-2-yltetrazol-1-yl)-benzamide] | 107 | 205
Cc1ccc(-c2cc(C(=O)NC(C)(C)C(F)(F)F)cc(-n3nnnc3C(C)C)c2)cc1 [Example 19, 3-(4-Methylphenyl)-5-(5-propan-2-yltetrazol-1-yl)-N-(1,1,1-trifluoro-2-methylpropan-2-yl)-benzamide] | 79 | 230
CCC(C)(C)NC(=O)c1cc(-c2ccc(F)cc2)cc(-n2nnnc2C(C)(C)C)c1 [Example 97, 3-(5-tert-Butyltetrazol-1-yl)-5-(4-fluorophenyl)-N-(2-methylbutan-2-yl)-benzamide] | 199 | 120
CC(C)(NC(=O)c1cc(-c2ccc(Cl)cc2)cc(-n2cnnn2)c1)C1CC1 [Example 31, 3-(4-Chlorophenyl)-N-(2-cyclopropylpropan-2-yl)-5-(tetrazol-1-yl)-benzamide] | 191 | 210
CCc1nnnn1-c1cc(C(=O)NC(C)(C)CC)cc(-c2ccc(C)cc2)c1 [Example 28, 3-(5-Ethyltetrazol-1-yl)-N-(2-methylbutan-2-yl)-5-(4-methylphenyl)-benzamide] | 71.5 | 140
CC(C)(C)c1nnnn1-c1cc(C(=O)NC(C)(C)C2CC2)cc(-c2ccc(F)cc2)c1 [Example 99, 3-(5-tert-Butyltetrazol-1-yl)-N-(2-cyclopropylpropan-2-yl)-5-(4-fluorophenyl)-benzamide] | 201 | 200
CCC(C)(C)NC(=O)c1cc(-c2ccc(Cl)cc2)cc(-n2cnnn2)c1 [Example 11, 3-(4-Chlorophenyl)-N-(2-methylbutan-2-yl)-5-(tetrazol-1-yl)-benzamide] | 206 | 76
CC1(NC(=O)c2cc(-c3ccc(Cl)cc3)cc(-n3nnnc3C3CC3)c2)CCS(=O)(=O)C1 (racemic) [Example 57, (RS)-3-(4-Chlorophenyl)-5-(5-cyclopropyltetrazol-1-yl)-N-(3-methyl-1,1-dioxothiolan-3-yl)-benzamide] | 126 | 350
CC(C)(CO)NC(=O)c1cc(-c2ccc(Cl)cc2)cc(-n2nnnc2C2CC2)c1 [Example 58, 3-(4-Chlorophenyl)-5-(5-cyclopropyltetrazol-1-yl)-N-(1-hydroxy-2-methylpropan-2-yl)-benzamide] | 110 | 360
CCC(C)(C)NC(=O)c1cc(-c2ccc(Cl)c(Cl)c2)cc(-n2cnnn2)c1 [Example 38, 3-(3,4-Dichlorophenyl)-N-(2-methylbutan-2-yl)-5-(tetrazol-1-yl)-benzamide] | 206 | 700
Cc1ccc(-c2cc(C(=O)NC(C)(C)CO)cc(-n3nnnc3C3CC3)c2)cc1 [Example 32, 3-(5-Cyclopropyltetrazol-1-yl)-N-(1-hydroxy-2-methylpropan-2-yl)-5-(4-methylphenyl)-benzamide] | – | 430
CCC(C)(C)NC(=O)c1cc(-c2ccc(Cl)c(F)c2)cc(-n2cnnn2)c1 [Example 37, 3-(4-Chloro-3-fluorophenyl)-N-(2-methylbutan-2-yl)-5-(tetrazol-1-yl)-benzamide] | – | 240
N-(2-methylbutan-2-yl)-3-(4-methylphenyl)-5-(5-methyltetrazol-1-yl)-benzamide [Example 22] | – | 150
CC(C)c1nnnn1-c1cc(C(=O)NC(C)(C)CO)cc(-c2ccc(C(F)(F)F)cc2)c1 [Example 51, N-(1-Hydroxy-2-methylpropan-2-yl)-3-(5-propan-2-yltetrazol-1-yl)-5-[4-(trifluoromethyl)-phenyl]-benzamide] | – | 370

Continued, values first:

melting point [°C] | Kb (human EAAT3) [nM] | Compound
98 | 240 | Cc1nnnn1-c1cc(C(=O)NC(C)(C)C)cc(-c2ccc(Cl)cc2)c1 [Example 67, N-tert-Butyl-3-(4-chlorophenyl)-5-(5-methyltetrazol-1-yl)-benzamide]
89 | 190 | CCC(C)(C)NC(=O)c1cc(-c2ccc(C(F)(F)F)cc2)cc(-n2nnnc2C(C)C)c1 [Example 46, N-(2-Methylbutan-2-yl)-3-(5-propan-2-yltetrazol-1-yl)-5-[4-(trifluoro-methyl)-phenyl]-benzamide]
112 | 150 | CC(C)(CO)NC(=O)c1cc(-c2ccc(Cl)cc2)cc(-n2nnnc2C(C)(C)C)c1 [Example 88, 3-(5-tert-Butyltetrazol-1-yl)-5-(4-chlorophenyl)-N-(1-hydroxy-2-methylpropan-2-yl)-benzamide]
83 | 110 | CCC(C)(C)NC(=O)c1cc(-c2ccc(F)cc2)cc(-n2nnnc2C)c1 [Example 78, 3-(4-Fluorophenyl)-N-(2-methylbutan-2-yl)-5-(5-methyltetrazol-1-yl)-benzamide]
168 | 220 | CCC(C)(C)NC(=O)c1cc(-c2ccc(C(F)(F)F)cc2)cc(-n2cnnn2)c1 [Example 2, N-(2-Methylbutan-2-yl)-3-(tetrazol-1-yl)-5-[4-(trifluoromethyl)phenyl]-benzamide]
115 | 230 | CC(C)(C#N)NC(=O)c1cc(-c2ccc(F)cc2)cc(-n2nnnc2C(C)(C)C)c1 [Example 100, 3-(5-tert-Butyltetrazol-1-yl)-N-(2-cyanopropan-2-yl)-5-(4-fluorophenyl)-benzamide]
– | 260 | CC(C)c1nnnn1-c1cc(C(=O)NC(C)(C)CO)cc(-c2ccc(Cl)cc2)c1 [Example 50, 3-(4-Chlorophenyl)-N-(1-hydroxy-2-methylpropan-2-yl)-5-(5-propan-2-yltetrazol-1-yl)-benzamide]
223.5 | 280 | Cc1ccc(-c2cc(C(=O)NC(C)(C)C(F)(F)F)cc(-n3nnnc3C(C)(C)C)c2)cc1 [Example 117, 3-(5-tert-Butyltetrazol-1-yl)-5-(4-methylphenyl)-N-(1,1,1-trifluoro-2-methylpropan-2-yl)-benzamide]
95 | 620 | CC(C)(C)c1nnnn1-c1cc(C(=O)NC(C)(C)C2CC2)cc(-c2ccc(C3CC3)cc2)c1 [Example 114, 3-(5-tert-Butyltetrazol-1-yl)-5-(4-cyclopropylphenyl)-N-(2-cyclopropylpropan-2-yl)-benzamide]
– | 610 | CCC(C)(C)NC(=O)c1cc(-c2ccc(C(C)C)cc2)cc(-n2cnnn2)c1 [Example 8, N-(2-Methylbutan-2-yl)-3-(4-propan-2-ylphenyl)-5-(tetrazol-1-yl)-benzamide]
– | 540 | CCC(C)(C)NC(=O)c1cc(-c2ccc(C3CC3)cc2)cc(-n2cnnn2)c1 [Example 9, 3-(4-Cyclopropylphenyl)-N-(2-methylbutan-2-yl)-5-(tetrazol-1-yl)-benzamide]
